{"source": "patent US11517578B1", "about": "“Topical formulations containing erythritol and methods of treating skin conditions” (InnoMed Technologies, Inc., priority 2021, dated 2022)", "system": "facial acne", "assay": "Topical treatment of facial acne in patients (case examples 1-3)", "assay_type": "in vivo, human", "details": "patient history: OTC benzoyl peroxide gels and washes tried before the formulation", "source_text": "In this example, a person visits a healthcare professional and complains of facial acne that has been persistent for the past three years. They describe sporadic facial breakouts that began gradually, varied in severity and never completely cleared. They explain that the breakouts contribute to feelings of low self-esteem.\nThe healthcare professional administers the formulation of erythritol and zinc to the patient. As detailed in Table 2, the formulation includes erythritol (3.75%) and zinc chloride (1.25%). The formulation allows for effective transdermal administration of the zinc chloride-erythritol mixture which can prevent or ameliorate bacterial growth at or near skin pores and hair follicles.\nThe patient is also advised to continue daily use of an OTC facial wash. After washing and rinsing the face, the patient applies the formulation to the entire face. After five to ten minutes, the face can be rinsed with water. The routine is repeated each day (i.e., twice per day). Within ten days, the acne is resolved by about 80% (i.e., about 80% of the acne is gone). The comedones, papules and pustules are less apparent and only visible at close proximity. The patient resumes twice daily use of the formulation. Within two weeks the signs/symptoms of acne are resolved by about 95%. The patient has a clear complexion. […]", "note": "“Also recorded” adds a separate entry of the source.", "data": [{"molecule": "O=C(OOC(=O)c1ccccc1)c1ccccc1", "note": "[benzoyl peroxide]", "values": [{"measurement": "improvement of facial acne", "value": "without improvement; also recorded: minimal or no significant improvement"}]}]}
